Laboratory results as given in patent publication US11390828B2, “Catnip cultivar ‘CR9’” (RUTGERS, THE STATE UNIVERSITY OF NEW JERSEY, priority 2016, dated 2022).

Key:
Aedes aegypti = test: Dose dependent one-choice mosquito landing rate inhibition assay; type: in vivo
Protocol: (§1) Nepeta cataria plants were evaluated as insect repellents against Aedes aegypti and Anopholes gambiae mosquitoes in a landing rate inhibition assay against DEET as shown in FIGS. 4 and 5. A dose dependent curve was generated for all treatments and a time course analysis was performed with a crude essential oil sample. […] Between two and four hours the ability to generate 95% repellency diminished.
Mosquito eggs were reared in water at 27° C. with 80% humidity and the mosquitoes were transferred during the rearing process with an eye dropper. The A. aegypti eggs were placed in a container holding water and once hatched and formed into larvae, they were separated from the unhatched eggs and placed into fresh water. General fish food tablets were used as the energy source for the maturing mosquitoes. As the mosquitoes began to form into pupae, they were separated from the smaller less developed larvae and placed into fresh water. This container was then placed into a Bug Dorm Cage where the pupae were allowed to mature into adults. […]
Repellency was determined by a one-choice landing assay that uses the amount of mosquito landings to calculate the overall effectiveness of the candidate repellent. […] Time lapse photography recorded one image every five seconds. […]

Anopholes gambiae = test: Dose dependent mosquito landing rate inhibition assay; type: in vivo; conditions: treatment at 1.00%, FIG. 5
Protocol: as §1
Repellency was determined by a one-choice landing assay that uses the amount of mosquito landings to calculate the overall effectiveness of the candidate repellent. Twenty, one day starved adult female Aedes aegypti mosquitoes were aspirated into a Bug Dorm Cage. Testing was performed between 10:00 am and 4:00 pm PST during A. aegypti's host seeking hours. A HotHands® heat pack was used as the heat source to attract the mosquitoes in the upper region of the back panel. Treatments were applied to a Whatman® filter paper and used to wrap the heat source. A control of just acetone was applied to the filter papers before and after each treatment to ensure reproducibility in mosquito behavior. […] Time lapse photography recorded one image every five seconds. A custom was used to count the mosquitoes automatically through the open source image processing software ImageJ.

[1] = system: two species of mosquitoes; conditions: cited from earlier work
house and stable flies = conditions: in vivo; cited from earlier work
[2] = system: house dust mite species, poultry mites; conditions: in vivo; cited from earlier work
harvester ants = conditions: body contact; cited from earlier work

Question: What does the source list for `CCN(CC)C(=O)c1cccc(C)c1` [DEET]?
Answer: decrease in landings of mosquitoes (repellency) (Aedes aegypti; treatment at 1.00% on filter paper, FIG. 4): > 95%; decrease in landings of mosquitoes (repellency) (Anopholes gambiae): > 95%

Question: For `CC1COC(=O)C2C(C)CCC12` (centres unmarked) [dihydronepetalactone 2], which “duration of complete protection” value ([1]; human subjects) is on record?
Answer: Its value is “up to five”.

Question: And the “repelling efficacy compared with DEET” value ([1]; two species of mosquitoes)?
Answer: The value was “as effective at repelling two species of mosquitoes as DEET”.

Question: Which “repellency percentage compared between treatments” value (Aedes aegypti; treatment at 0.10%) does the source give for Z, E nepetalactone here?
Answer: Its value is “highest repellency percentage”.

Question: What about the repellency (house and stable flies) of the same compound?
Answer: The repellency was “significant repellency”.

Question: And the repellency [2]?
Answer: The repellency was “efficient in repelling”.

Question: What about the “speed of mortality compared with the other nepetalactones in catnip” value (harvester ants) of the same compound?
Answer: Its value is “mortality was achieved faster”.
